The subject of test [1] is Escherichia coli. As to the kind of experiment: Antimicrobial activity against Escherichia coli ATCC 25922 after 24 hr by two-fold serial dilution method. The class given is functional. To be noted: ATCC 25922, 24 h.
Test [2] has as its system Candida albicans. Description: Antimicrobial activity against Candida albicans ATCC 76615 after 48 hr by two-fold serial dilution method. The class given is functional. The settings on record: ATCC 76615, 48 h.
The test system of test [3] is Candida albicans. Description: Microbiostatic activity against Candida albicans ATCC 76615. The class given is functional, organism-based.
Test [4] deals with Aspergillus flavus. As to the kind of experiment: Antimicrobial activity against Aspergillus flavus ATCC 10124 after 48 hr by two-foldserial dilution method. It counts as functional. The settings on record: ATCC 10124, 48 h.
Test [5] deals with Pseudomonas aeruginosa. As to the kind of experiment: Antimicrobial activity against Pseudomonas aeruginosa ATCC 27853 after 24 hr by two-fold serial dilution method. The class given is functional. To be noted: ATCC 27853, 24 h.
Test [6] deals with Escherichia coli. Description: Microbiostatic activity against Escherichia coli ATCC 25922 after […]. The class given is functional, organism-based.
Test [7] deals with Bacillus spizizenii. Description: Microbiostatic activity against Bacillus subtilis subsp. spizizenii ATCC 6633 after 24 hr.
Test [8] concerns Staphylococcus aureus. Description: Microbiostatic activity against Staphylococcus aureus ATCC 25923 after 24 hr.
Test [9] relates to Proteus vulgaris. Description: Microbiostatic activity against Proteus vulgaris ATCC 6896 after 24 hr.
Test [10] concerns Staphylococcus aureus. As to the kind of experiment: Antimicrobial activity against Staphylococcus aureus ATCC 25923 after 24 hr by two-fold serial dilution method. It counts as functional. The settings on record: ATCC 25923, 24 h.
The test system of test [11] is Bacillus spizizenii. As to the kind of experiment: Antimicrobial activity against Bacillus subtilis subsp. spizizenii ATCC 6633 after 24 hr by two-fold serial dilution method. The settings on record: ATCC 6633, 24 h. The class given is functional.
Test [12] deals with Pseudomonas aeruginosa. Description: Microbiostatic activity against Pseudomonas aeruginosa ATCC 27853 after 24 hr.
For test [13], the system named is Proteus vulgaris. Description: Antimicrobial activity against Proteus vulgaris ATCC 6896 after 24 hr by two-fold serial dilution method. The class given is functional. The settings on record: ATCC 6896, 24 h.
The subject of test [14] is Aspergillus flavus. Description: Microbiostatic activity against Aspergillus flavus ATCC 10124. The class given is functional, organism-based.

In brackets after ≈: the same amount, converted by molar mass. Activity calls are given as the source filed them. No cut-off for these calls is given here.

Turning to `Clc1ccccc1C(c1ccccc1)(c1ccccc1)n1ccnc1` [CLOTRIMAZOLE], the MIC – broadly, the lowest concentration that inhibits growth of the organism – in test [1] was 512 µg/mL (≈ 1480 µM); in test [2], 2 µg/mL (≈ 5.8 µM); in test [4], 2 µg/mL (≈ 5.8 µM); in test [5] it was 512 µg/mL (≈ 1480 µM); in test [10] it was 512 µg/mL (≈ 1480 µM); in test [11], 512 µg/mL (≈ 1480 µM). In [13], this compound returned an MIC of 512 µg/mL (≈ 1480 µM). Moreover, the outcome in test [3], in test [6], in test [7], in test [8], in [9] and in [12] was Active. The outcome in [14] was Active.
On to `O=C1COc2cc(F)ccc2N1C1CCCCC1`, for which the MIC in [1] is 16 µg/mL (≈ 64.2 µM); in [2], 256 µg/mL (≈ 1030 µM); in [4], 64 µg/mL (≈ 257 µM); in [5], 16 µg/mL (≈ 64.2 µM); in test [10], 16 µg/mL (≈ 64.2 µM); in [11], 32 µg/mL (≈ 128 µM). Besides, the MIC in test [13] was 16 µg/mL (≈ 64.2 µM). The result in [3], in test [6], in test [7], in [8], in [9] and in test [12] was Active. Besides, in test [14], the outcome was Active.
Consider `O=C1COc2cc(F)ccc2N1Cc1ccccc1`, for which the MIC in test [1] is 16 µg/mL (≈ 62.2 µM); in test [2], 256 µg/mL (≈ 995 µM); in test [4] it was 128 µg/mL (≈ 498 µM); in [5], 16 µg/mL (≈ 62.2 µM); in test [10], 64 µg/mL (≈ 249 µM); in test [11], 32 µg/mL (≈ 124 µM). Further, the MIC in [13] turned out to be 32 µg/mL (≈ 124 µM). The outcome in [3], in test [6], in test [7], in test [8], in [9] and in test [12] was Active. Moreover, in test [14], the result was Active.
For `O=C1COc2cc(Br)ccc2N1Cc1ccccc1`, the MIC worked out at 32 µg/mL (≈ 101 µM) in test [1]; 128 µg/mL (≈ 402 µM) in test [2]; 128 µg/mL (≈ 402 µM) in test [4]; 16 µg/mL (≈ 50.3 µM) in test [5]; 32 µg/mL (≈ 101 µM) in test [10]; 32 µg/mL (≈ 101 µM) in [11]. Also, in test [13], inhibition of growth (MIC) required 32 µg/mL (≈ 101 µM). The outcome in test [3], in [6], in [7], in [8], in test [9] and in test [12] was Active. In addition, the outcome in test [14] was Active.
For `O=C1COc2ccc(Cl)cc2N1Cc1ccccc1`, the MIC was found to be 128 µg/mL (≈ 468 µM) in test [1]; 64 µg/mL (≈ 234 µM) in [2]; 32 µg/mL (≈ 117 µM) in [4]; 128 µg/mL (≈ 468 µM) in test [5]; 64 µg/mL (≈ 234 µM) in test [10]; 32 µg/mL (≈ 117 µM) in test [11]. In test [13], this compound gave an MIC of 32 µg/mL (≈ 117 µM). Also, the result in [3], in test [6], in test [7], in test [8], in test [9] and in test [12] was Active. Also, the result in test [14] was Active.
Regarding `CCCCCCN1C(=O)COc2cc(F)ccc21`, the MIC in test [1] is 16 µg/mL (≈ 63.7 µM); in test [2], 128 µg/mL (≈ 509 µM); in test [4], 128 µg/mL (≈ 509 µM); in [5], 128 µg/mL (≈ 509 µM); in [10], 32 µg/mL (≈ 127 µM); in test [11], 32 µg/mL (≈ 127 µM). The compound further displayed an MIC in test [13] of 16 µg/mL (≈ 63.7 µM). Further, the outcome in test [3], in [6], in test [7], in test [8], in test [9] and in test [12] was Active. For the same compound, the outcome in test [14] was Active.
Take `O=C1COc2cc(Cl)ccc2N1Cc1ccccc1`: the MIC was 64 µg/mL (≈ 234 µM) in [1]; 128 µg/mL (≈ 468 µM) in [2]; 128 µg/mL (≈ 468 µM) in test [4]; 16 µg/mL (≈ 58.5 µM) in test [5]; 64 µg/mL (≈ 234 µM) in test [10]; 32 µg/mL (≈ 117 µM) in test [11]. In test [13], this compound yielded an MIC of 64 µg/mL (≈ 234 µM). In addition, the outcome in [3], in [6], in test [7], in test [8], in test [9] and in test [12] was Active. Further, the outcome in test [14] was Active.
Take `O=C1COc2cc(Cl)ccc2N1CC1CCCO1` (configuration not stated): the MIC was found to be 32 µg/mL (≈ 120 µM) in test [1]; 128 µg/mL (≈ 478 µM) in test [2]; 256 µg/mL (≈ 956 µM) in test [4]; 64 µg/mL (≈ 239 µM) in test [5]; 32 µg/mL (≈ 120 µM) in test [10]; 32 µg/mL (≈ 120 µM) in test [11]. In addition, the MIC in [13] worked out at 32 µg/mL (≈ 120 µM). For the same compound, the result in [3], in test [6], in [7], in test [8], in test [9] and in [12] was Active. Moreover, the outcome in [14] was Active.
